Source: US20100075334A1, “METHYLATION BIOMARKER FOR EARLY DETECTION OF GASTRIC CANCER” (priority 2007, published 2010)

Test system: gastric cancer cell lines, SNU001, SNU601, and SNU668
Assay: Reactivation analysis of silenced genes by drug treatment (RT-PCR)
Type: cell-based, human
Details: for number of selected genes restored (summary): 5-aza and/or TSA treatment, of 26 epigenetic targets; for number of selected genes restored in the corresponding inactivated cells: after 5-Aza-dC and/or TSA treatment, gene-specific or cell-specific mode
Protocol: To examine the correspondence between NotI-methylation and gene silencing at the neighboring region of the NotI site, RT-PCR analysis was performed for each selected gene with RNA of gastric cancer cell line. Reverse transcription using 5 μg of DNase-treated RNA was done using Superscript II reverse transcriptase (Invitrogen) in a reaction volume of 20 μL. One μL of the reverse transcription reaction was used for amplification using Platinum Taq DNA polymerase (Invitrogen). Amplification was done as follows: denaturation at 94° C. for 30 s, annealing at a primer specific annealing temperature for 30 s and extension at 72° C. for 45 s. All reactions were performed on a GeneAmp PCR System 9700 (Perkin-Elmer Corp.). Five μL of the PCR product were run on a 0.8% agarose gel and visualized by EtBr staining. GAPDH gene was used as a control for comparison of the amount of reverse transcribed template in each sample.
Three gastric cancer cell lines, SNU001, SNU601, and SNU668, were treated with 5-aza-2′-deoxycytidine (5-Aza-dC; Sigma) as a demethylating agent and 5-Aza-dC and trichostatin A (TSA; Sigma) as a HDAC inhibitor to examine the restoring of selected genes in those cells. Each cell was plated at a density of 1×10^5 cells/100-mm dish and cultures for 24 h, followed by 72 h culture with 1 μM 5-Aza-dC. Other cells were also followed by 24 h culture with 250 nM TSA or 72 h 5-Aza-dC-treated cells for another 24 h. RNA was prepared and RT-PCR analysis was then performed using gene-specific primer set as described above. GAPDH gene was also used as a control.
For the selected 22 genes, reactivation analysis was examined in three gastric cancer cell lines by 5-Aza-dC and/or TSA treatment.

SMILES: Nc1ncn([C@H]2C[C@H](O)[C@@H](CO)O2)c(=O)n1 [5-Aza-dC, 5-aza-2′-deoxycytidine]
- number of selected genes restored (summary): 23 of 26
- number of selected genes restored in the corresponding inactivated cells: 22 genes
- restoration of expression of POPDC3, NACM2, PRKD1 and AMPD3 (three gastric cancer cell lines, 1 μM 5-Aza-dC 72 h, RT-PCR, restored only by 5-Aza-dC): restored in two or three corresponding inactivated cells

SMILES: CC(/C=C/C(=O)NO)=C\[C@@H](C)C(=O)c1ccc(N(C)C)cc1 [TSA, trichostatin A]
- number of selected genes restored (summary): 23 of 26
- number of selected genes restored in the corresponding inactivated cells: 22 genes
